Data as given in US20230159445A1, “STAT INHIBITORY COMPOUNDS AND COMPOSITIONS” (JANPIX LIMITED, priority 2020, published 2023).

Legend:
MV4-11 cells = test: MV4-11 Cell Cytotoxicity Assay (CellTiter-Blue, 72 h); type: cell-based, human; conditions: Homo sapiens, MV4-11; MV-4-11 cells
Summary of the method: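 Viability read-out: CellTiter-Blue, 1 h, fluorescence 560/590 nm. Preceded by 72 h exposure (37° C, 5% CO2) to twofold dilution series from 50 μM, triplicate, 0.5% DMSO vehicle, applied 24 h after plating.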

glutathione (GSH) = test: Reactivity Profiling with Glutathione (GSH), half-life by HPLC; conditions: 5 mM glutathione (GSH) in IMDM with 10% FBS
Procedure: 3.5 μL of 5 mM stocking solution of the inhibitors in DMSO was added to 697.5 μL of Iscove's Modified Dulbecco's Medium (IMDM) supplemented with 10% FBS and antibiotic antimycotic solution, with 5 mM glutathione to afford a final concentration of 25 μM inhibitor with 0.5% DMSO. The solution was then immediately placed in the sample tray at 25° C. […] For each inhibitor, its peak is integrated at different time points and compared to the time zero injection in order to obtain a percentage remaining. Half-life is calculated according to a first order reaction kinetic taking into account those time points for which remaining percentage of inhibitor is above 40%, using the formula: t½=Ln(2)/k, where k is the slope of the linear plot of Ln[Inhibitor] vs time, according to the formula: Ln[A]=Ln[A]0−kt, where [A] is the value resulting from the integration at each time point, [A]0 the value at time zero, and t the time. For each inhibitor, both replicates are averaged and the resulting t½ reported.

SMILES | half-life at 25 μM (glutathione (GSH)) | IC50 (MV4-11 cells)
CC(C)COc1cc(CN(C(=O)CN(Cc2ccc(Cl)cc2)S(=O)(=O)c2c(F)c(F)c(F)c(F)c2F)c2ccc(C(=O)O)c(O)c2)cc(OCC2CC2)c1 [Compound 1010, 4-(2-(N-(4-chlorobenzyl)-(2,3,4,5,6-pentafluorophenyl)sulfonamido)-N-(3-(cyclopropylmethoxy)-5-isobutoxybenzyl)acetamido)-2-hydroxybenzoic acid] | 2.37 to 4.12 h | 3.16 to 100 µM
CC(C)(C)c1cc(CN(C(=O)CN(Cc2ccc(Cl)cc2)S(=O)(=O)c2c(F)c(F)c(F)c(F)c2F)c2ccc(C(=O)O)cc2O)cc(C2CC2)c1 [Compound 1015, 4-(N-(3-(tert-butyl)-5-cyclopropylbenzyl)-2-(N-(4-chlorobenzyl)-(2,3,4,5,6-pentafluorophenyl)sulfon-amido)acetamido)-3-hydroxybenzoic acid] | 4.12 to 9.23 h | 3.16 to 100 µM
COc1cc(N(Cc2cc(C3CC3)cc(C(C)(C)C)c2)C(=O)CN(Cc2ccc(Cl)cc2)S(=O)(=O)c2c(F)c(F)c(F)c(F)c2F)ccc1C(=O)O [Compound 1017, 4-(N-(3-(tert-butyl)-5-cyclopropylbenzyl)-2-(N-(4-chlorobenzyl)-(2,3,4,5,6-pentafluorophenyl)sulfon-amido)acetamido)-2-methoxybenzoic acid] | 4.12 to 9.23 h | 0.316 to 1 µM
CC(C)c1cc(CN(C(=O)CN(Cc2ccc(Cl)cc2)S(=O)(=O)c2c(F)c(F)c(F)c(F)c2F)c2ccc(C(=O)O)c(O)c2)cc(C2CC2)c1 [Compound 1021, 4-(2-(N-(4-chlorobenzyl)-(2,3,4,5,6-pentafluorophenyl)sulfon-amido)-N-(3-cyclopropyl-5-isopropylbenzyl)acetamido)-2-hydroxybenzoic acid] | 0.00167 to 2.37 h | 3.16 to 100 µM
CC(C)(C)c1cc(CN(C(=O)CN(Cc2ccc(Cl)cc2)S(=O)(=O)c2c(F)c(F)c(F)c(F)c2F)c2ccc(C(N)=O)cc2)cc(C2CC2)c1 [Compound 1031, 4-(N-(3-(tert-butyl)-5-cyclopropylbenzyl)-2-(N-(4-chlorobenzyl)-(2,3,4,5,6-pentafluorophenyl)sulfon-amido)acetamido) benzamide] | 9.23 to 1670 h | 1 to 3.16 µM
CC(C)(C)c1cc(CN(C(=O)CN(Cc2ccc(Cl)cc2)S(=O)(=O)c2c(F)c(F)c(F)c(F)c2F)c2ccc(C(=O)O)c(F)c2)cc(C2CC2)c1 [Compound 1033, 4-(N-(3-(tert-butyl)-5-cyclopropylbenzyl)-2-(N-(4-chlorobenzyl)-(2,3,4,5,6-pentafluorophenyl)sulfon-amido)acetamido)-2-fluorobenzoic acid] | 0.00167 to 2.37 h | 1 to 3.16 µM
COc1ccccc1CN(CC(=O)N(Cc1cc(C2CC2)cc(C(C)(C)C)c1)c1ccc(C(=O)O)c(O)c1)S(=O)(=O)c1c(F)c(F)c(F)c(F)c1F [Compound 1037, 4-(N-(3-(tert-butyl)-5-cyclopropylbenzyl)-2-(N-(2-methoxybenzyl)-(2,3,4,5,6-pentafluoro-phenyl)sulfonamido)acetamido)-2-hydroxybenzoic acid] | 2.37 to 4.12 h | 1 to 3.16 µM
C[C@H](CC(=O)N(Cc1cc(C2CC2)cc(C(C)(C)C)c1)c1ccc(C(=O)O)c(O)c1)N(Cc1ccc(Cl)cc1)S(=O)(=O)c1c(F)c(F)c(F)c(F)c1F [Compound 1039, (R)-4-(N-(3-(tert-butyl)-5-cyclopropylbenzyl)-3-(N-(4-chlorobenzyl)-(2,3,4,5,6-pentafluorophenyl)sulfon-amido)butanamido)-2-hydroxybenzoic acid] | 2.37 to 4.12 h | 1 to 3.16 µM
C[C@@H](CC(=O)N(Cc1cc(C2CC2)cc(C(C)(C)C)c1)c1ccc(C(=O)O)c(O)c1)N(Cc1ccc(Cl)cc1)S(=O)(=O)c1c(F)c(F)c(F)c(F)c1F [Compound 1040, (S)-4-(N-(3-(tert-butyl)-5-cyclopropylbenzyl)-3-(N-(4-chlorobenzyl)-(2,3,4,5,6-pentafluorophenyl)sulfon-amido)butanamido)-2-hydroxybenzoic acid] | 4.12 to 9.23 h | 3.16 to 100 µM
CC(C)(C)c1cc(CN(C(=O)CN(Cc2ccccc2C(F)(F)F)S(=O)(=O)c2c(F)c(F)c(F)c(F)c2F)c2ccc(C(=O)O)c(O)c2)cc(C2CC2)c1 [Compound 1048, 4-(N-(3-(tert-butyl)-5-cyclopropylbenzyl)-2-(N-(2-(trifluoromethyl)benzyl)-(2,3,4,5,6-pentafluoro-phenyl)sulfonamido)acetamido)-2-hydroxybenzoic acid] | 9.23 to 1670 h | 1 to 3.16 µM
CC(C)(C)c1cc(CN(C(=O)CN(Cc2ccc(Cl)cc2)S(=O)(=O)c2c(F)c(F)c(F)c(F)c2F)c2ccc(C(=O)O)cc2OC(F)(F)F)cc(C2CC2)c1 [Compound 1050, 4-(N-(3-(tert-butyl)-5-cyclopropylbenzyl)-2-(N-(4-chlorobenzyl)-(2,3,4,5,6-pentafluorophenyl)sulfon-amido)acetamido)-3-(trifluoromethoxy) benzoic acid] | 9.23 to 1670 h | 1 to 3.16 µM
CC(C)(C)c1cc(CN(C(=O)CCN(Cc2ccc(Cl)cc2)S(=O)(=O)c2c(F)c(F)c(F)c(F)c2F)c2ccc(C(=O)O)c(O)c2)cc(C2CC2)c1 [Compound 1052, 4-(N-(3-(tert-butyl)-5-cyclopropylbenzyl)-3-(N-(4-chlorobenzyl)-(2,3,4,5,6-pentafluorophenyl)sulfon-amido)propanamido)-2-hydroxybenzoic acid] | 2.37 to 4.12 h | 3.16 to 100 µM

The next lines start with results.

half-life at 25 μM (glutathione (GSH)) | SMILES | IC50 (MV4-11 cells)
0.00167 to 2.37 h | O=C(O)c1ccc(N(Cc2cc(Br)cc(C3CC3)c2)C(=O)CN(Cc2ccc(Cl)cc2)S(=O)(=O)c2c(F)c(F)c(F)c(F)c2F)cc1O [Compound 1054, 4-(N-(3-bromo-5-cyclopropylbenzyl)-2-(N-(4-chlorobenzyl)-(2,3,4,5,6-pentafluorophenyl)sulfon-amido)acetamido)-2-hydroxybenzoic acid] | 3.16 to 100 µM
9.23 to 1670 h | CC(C)(C)c1cc(CN(C(=O)CN(Cc2ccc(Cl)cc2)S(=O)(=O)c2c(F)c(F)c(F)c(F)c2F)c2ccc(S(N)(=O)=O)cc2)cc(C2CC2)c1 [Compound 1055, N-(3-(tert-butyl)-5-cyclopropylbenzyl)-2-(N-(4-chlorobenzyl)-(2,3,4,5,6-pentafluorophenyl)sulfon-amido)-N-(4-sulfamoylphenyl) acetamide] | 1 to 3.16 µM
4.12 to 9.23 h | Cc1cc(C(=O)O)ccc1N(Cc1cc(C2CC2)cc(C(C)(C)C)c1)C(=O)CN(Cc1ccc(Cl)cc1)S(=O)(=O)c1c(F)c(F)c(F)c(F)c1F [Compound 1056, 4-(N-(3-(tert-butyl)-5-cyclopropylbenzyl)-2-(N-(4-chlorobenzyl)-(2,3,4,5,6-pentafluorophenyl)sulfon-amido)acetamido)-3-methylbenzoic acid] | 0.316 to 1 µM
9.23 to 1670 h | CC(C)(C)c1cc(CN(C(=O)CN(Cc2ccccc2F)S(=O)(=O)c2c(F)c(F)c(F)c(F)c2F)c2ccc(C(=O)O)cc2N2CCC2)cc(C2CC2)c1 [Compound 1058, 3-(azetidin-1-yl)-4-(N-(3-(tert-butyl)-5-cyclopropylbenzyl)-2-(N-(2-fluorobenzyl)-(2,3,4,5,6-pentafluoro-phenyl)sulfonamido)acetamido)benzoic acid] | 0.316 to 1 µM
4.12 to 9.23 h | CN(C)c1cc(C(=O)O)c(F)cc1N(Cc1cc(C2CC2)cc(C(C)(C)C)c1)C(=O)CN(Cc1ccccc1F)S(=O)(=O)c1c(F)c(F)c(F)c(F)c1F [Compound 1060, 4-(N-(3-(tert-butyl)-5-cyclopropylbenzyl)-2-(N-(2-fluorobenzyl)-(2,3,4,5,6-pentafluoro-phenyl)sulfonamido)acetamido)-5-(dimethylamino)-2-fluorobenzoic acid] | 1e-05 to 0.316 µM
4.12 to 9.23 h | CN(c1cc(C(=O)O)ccc1N(Cc1cc(C2CC2)cc(C(C)(C)C)c1)C(=O)CN(Cc1ccccc1F)S(=O)(=O)c1c(F)c(F)c(F)c(F)c1F)S(C)(=O)=O [Compound 1064, 4-(N-(3-(tert-butyl)-5-cyclopropylbenzyl)-2-(N-(2-fluorobenzyl)-(2,3,4,5,6-pentafluoro-phenyl)sulfonamido)acetamido)-3-(N-methylmethylsulfonamido) benzoic acid] | 1 to 3.16 µM
0.00167 to 2.37 h | CC(C)(C)c1cc(CN(C(=O)CN(Cc2ccccc2F)S(=O)(=O)c2c(F)c(F)c(F)c(F)c2F)c2ccc(C(=O)O)cc2F)cc(C2CC2)c1 [Compound 1065, 4-(N-(3-(tert-butyl)-5-cyclopropylbenzyl)-2-(N-(2-fluorobenzyl)-(2,3,4,5,6-pentafluoro-phenyl)sulfonamido)acetamido)-3-fluorobenzoic acid] | 0.316 to 1 µM
0.00167 to 2.37 h | CC(C)(C)c1cc(CN(C(=O)CN(Cc2ccccc2F)S(=O)(=O)c2c(F)c(F)c(F)c(F)c2F)c2ccc(C(=O)O)c(N)c2)cc(C2CC2)c1 [Compound 1070, 2-amino-4-(N-(3-(tert-butyl)-5-cyclopropylbenzyl)-2-(N-(2-fluorobenzyl)-(2,3,4,5,6-pentafluoro-phenyl)sulfonamido)acetamido)benzoic acid] | 0.316 to 1 µM
2.37 to 4.12 h | CN(C)c1cc(N(Cc2cc(C3CC3)cc(C(C)(C)C)c2)C(=O)CN(Cc2ccccc2F)S(=O)(=O)c2c(F)c(F)c(F)c(F)c2F)ccc1C(=O)O [Compound 1071, 4-(N-(3-(tert-butyl)-5-cyclopropylbenzyl)-2-(N-(2-fluorobenzyl)-(2,3,4,5,6-pentafluoro-phenyl)sulfonamido)acetamido)-2-(dimethylamino) benzoic acid] | 0.316 to 1 µM
4.12 to 9.23 h | Cc1cc(C(=O)O)cc(C)c1N(Cc1cc(C2CC2)cc(C(C)(C)C)c1)C(=O)CN(Cc1ccccc1F)S(=O)(=O)c1c(F)c(F)c(F)c(F)c1F [Compound 1072, 4-(N-(3-(tert-butyl)-5-cyclopropylbenzyl)-2-(N-(2-fluorobenzyl)-(2,3,4,5,6-pentafluoro-phenyl)sulfonamido)acetamido)-3,5-dimethylbenzoic acid] | 0.316 to 1 µM
